Assay results: patent publication US20080070868A1, “Novel Thiazole Inhibitors of Fructose 1,6-bisphosphatase” (Metabasis Therapeutics, Inc., priority 2004, published 2008)

tested on: Sprague-Dawley rats; assay: Glucose lowering following oral administration to the fasted, normal rat; format: in vivo; details: maximum lowering relative to saline controls, 10 mg/kg oral, 18-h fasted rats
Description: Compounds were administered by oral gavage to 18-h fasted, Sprague-Dawley rats (250-300 g, n=3/4/group) at a dose of 10 mg/kg. Phosphonic acids (active moieties) were prepared in deionized water, and the solution adjusted to neutrality with sodium hydroxide. Prodrugs were dissolved in polyethylene glycol (mw 400). Blood samples were taken via tail vein nick immediately prior to dosing and at 1 h intervals thereafter. Blood glucose was analyzed by means of a HemoCue glucose analyzer (HemoCue Inc., Mission Viejo, Calif.). The table below indicates the maximum % glucose lowering achieved relative to control animals dosed with saline.

SMILES | inhibition in vivo at 10 mg/kg
CCOC(=O)[C@H](C)NP(=O)(N[C@@H](C)C(=O)OCC)c1ccc(-c2nc(N)sc2C(=O)C(C)(CC)CC)o1 [Compound 2.7, 2-amino-5-(2-ethyl-2-methylbutyryl)-4-{[5-(N,N′-((S)-1-ethoxycar-bonyl)ethyl)phosphonamido]furan-2-yl}thiazole] | 10%
CCC(C)(C)C(=O)c1sc(N)nc1-c1ccc(P(=O)(NC(C)(C)C(=O)OC(C)C)NC(C)(C)C(=O)OC(C)C)o1 [Compound 2.8] | 14%
CCOC(=O)C(C)(C)NP(=O)(NC(C)(C)C(=O)OCC)c1ccc(-c2nc(N)sc2C(=O)C(C)(C)CC)o1 [Compound 2.9] | 24%
CCOC(=O)[C@H](C)NP(=O)(N[C@@H](C)C(=O)OCC)c1ccc(-c2nc(N)sc2C(=O)C(C)(C)CC)o1 [Compound 2.10, 2-amino-5-(2,2-dimethylbutyryl)-4-{[5-(N,N′-((S)-1-ethoxycarbonyl)-ethyl)phosphonamido]furan-2-yl}thiazole] | 12%
CCC(C)(CC)C(=O)c1sc(N)nc1-c1ccc(P(=O)(N[C@@H](C)C(=O)OC(C)C)N[C@@H](C)C(=O)OC(C)C)o1 [Compound 2.11, 2-amino-5-(2-ethyl-2-methylbutyryl)-4-{[5-(N,N′-((S)-1-isopropyloxy-carbonyl)-ethyl)phosphonamido]furan-2-yl}thiazole] | 13%
CCC(C)(C)C(=O)c1sc(N)nc1-c1ccc(P(=O)(NCC(=O)OC(C)(C)C)NCC(=O)OC(C)(C)C)o1 [Compound 2.12, 2-amino-5-(2,2-dimethylbutyryl)-4-{[5-(N,N′-tert-butyloxycarbonyl-methyl)phosphonamido]furan-2-yl}thiazole] | 10%
CCOC(=O)[C@H](C)NP(=O)(N[C@@H](C)C(=O)OCC)c1ccc(-c2nc(N)sc2C(=O)c2ccccc2C)o1 [Compound 2.14, 2-amino-5-(2-methylbenzoyl)-4-{[5-(N,N′-((S)-1-ethyl-oxycarbonyl)ethyl)-phosphonamido]furan-2-yl}thiazole] | 20%
CCOC(=O)C(C)(C)NP(=O)(NC(C)(C)C(=O)OCC)c1ccc(-c2nc(N)sc2C(=O)c2ccccc2C)o1 [Compound 2.15] | 8%
CCOC(=O)[C@H](C)NP(=O)(N[C@@H](C)C(=O)OCC)c1ccc(-c2nc(N)sc2C(=O)c2ccc(C)cc2)o1 [Compound 2.16, 2-amino-5-(4-methylbenzoyl)-4-{[5-(N,N′-((S)-1-ethyl-oxycarbonyl)ethyl)-phosphonamido]furan-2-yl}thiazole] | 6%
CCOC(=O)C(C)(C)NP(=O)(NC(C)(C)C(=O)OCC)c1ccc(-c2nc(N)sc2C(=O)c2ccc(C)cc2)o1 [Compound 2.17] | 10%
CC(C)OC(=O)[C@H](C)NP(=O)(N[C@@H](C)C(=O)OC(C)C)c1ccc(-c2nc(N)sc2C(=O)c2cccc(F)c2)o1 [Compound 2.18, 2-amino-5-(3-fluorobenzoyl)-4-{[5-(N,N′-((S)-1-isopropyl-oxycarbonyl)ethyl)-phosphonamido]furan-2-yl}thiazole] | 13%
CCOC(=O)[C@H](C)NP(=O)(N[C@@H](C)C(=O)OCC)c1ccc(-c2nc(N)sc2C(=O)c2cccc(F)c2)o1 [Compound 2.19, 2-amino-5-(3-fluorobenzoyl)-4-{[5-(N,N′-((S)-1-ethyloxy-carbonyl)ethyl)-phosphonamido]furan-2-yl}thiazole] | 16%
Cc1ccc(C(=O)c2sc(N)nc2-c2ccc(P(=O)(NC(C)(C)C(=O)OC(C)C)NC(C)(C)C(=O)OC(C)C)o2)cc1 [Compound 2.20] | 6%
Cc1ccccc1C(=O)c1sc(N)nc1-c1ccc(P(=O)(NC(C)(C)C(=O)OC(C)C)NC(C)(C)C(=O)OC(C)C)o1 [Compound 2.21] | 9%
Cc1ccccc1C(=O)c1sc(N)nc1-c1ccc(P(=O)(N[C@@H](C)C(=O)OC(C)C)N[C@@H](C)C(=O)OC(C)C)o1 [Compound 2.22, 2-amino-5-(2-methylbenzoyl)-4-{[5-(N,N′-((S)-1-isopropyl-oxycarbonyl)ethyl)-phosphonamido]furan-2-yl}thiazole] | 9%
CCOC(=O)C(C)(C)NP(=O)(NC(C)(C)C(=O)OCC)c1ccc(-c2nc(N)sc2C(=O)C(CC)CC)o1 [Compound 2.23] | 12%
CCOC(=O)[C@H](C)NP(=O)(N[C@@H](C)C(=O)OCC)c1ccc(-c2nc(N)sc2C(=O)C(CC)CC)o1 [Compound 2.24, 2-amino-5-(2-ethylbutyryl)-4-{[5-(N,N′-((S)-1′-ethyl-oxycarbonyl)ethyl)-phosphonamido]furan-2-yl}thiazole] | 19%
CCC(CC)C(=O)c1sc(N)nc1-c1ccc(P(=O)(NC(C)(C)C(=O)OC(C)C)NC(C)(C)C(=O)OC(C)C)o1 [Compound 2.25] | 10%
CCC(CC)C(=O)c1sc(N)nc1-c1ccc(P(=O)(N[C@@H](C)C(=O)OC(C)C)N[C@@H](C)C(=O)OC(C)C)o1 [Compound 2.26, 2-amino-5-(2-ethylbutyryl)-4-{[5-(N,N′-((S)-1-isopropyl-oxycarbonyl)ethyl)-phosphonamido]furan-2-yl}thiazole] | 16%
CCOC(=O)C(C)(C)NP(=O)(NC(C)(C)C(=O)OCC)c1ccc(-c2nc(N)sc2C(=O)c2cccc(F)c2)o1 [Compound 2.27] | 6%
CC(C)OC(=O)C(C)(C)NP(=O)(NC(C)(C)C(=O)OC(C)C)c1ccc(-c2nc(N)sc2C(=O)c2cccc(F)c2)o1 [Compound 2.28] | 10%
CCOC(=O)C(C)(C)NP(=O)(NC(C)(C)C(=O)OCC)c1ccc(-c2nc(N)sc2C(=O)C2CCC2)o1 [Compound 2.29] | 12%
CCOC(=O)[C@H](C)NP(=O)(Oc1ccc2c(c1)OCO2)c1ccc(-c2nc(N)sc2C(=O)C(CC)CC)o1 (stereo partly drawn) [Compound 5.1] | 8%
CCOC(=O)C(C)(C)NP(=O)(Oc1ccc2c(c1)OCO2)c1ccc(-c2nc(N)sc2C(=O)C(C)(C)C)o1 (stereo not drawn) [Compound 5.3] | 51%
CCOC(=O)COP(=O)(NC(C)(C)C(=O)OCC)c1ccc(-c2nc(N)sc2C(=O)C2CCC2)o1 (stereo not drawn) [Compound 5.4] | 16%
CCOC(=O)C(C)(C)NP(=O)(OCC(=O)OCc1ccccc1)c1ccc(-c2nc(N)sc2C(=O)C(C)(C)C)o1 (stereo not drawn) [Compound 5.5] | 20%
CCOC(=O)COP(=O)(N[C@@H](C)C(=O)OC(C)C)c1ccc(-c2nc(N)sc2C(=O)C(C)(C)C)o1 (stereo partly drawn) [Compound 5.6, 2-amino-5-(2,2-dimethylpropionyl)-4-{2-[5-(N-((S)-1-isopropyloxy-carbonyl)ethyl)-O-(ethoxycarbonylmethyl)monophosphonamido]furanyl}-thiazole] | 4%
CCOC(=O)COP(=O)(NC(C)(C)C(=O)OC(C)C)c1ccc(-c2nc(N)sc2C(=O)C(C)(C)C)o1 (stereo not drawn) [Compound 5.7] | 25%
CCOC(=O)COP(=O)(N[C@@H](C)C(=O)OCC)c1ccc(-c2nc(N)sc2C(=O)C(C)(C)C)o1 (stereo partly drawn) [Compound 5.8, 2-amino-5-(2,2-dimethylpropionyl)-4-{2-[5-(N-((S)-1-ethoxy-carbonyl)ethyl)-O-(ethoxycarbonylmethyl)monophosphonamido]furanyl}-thiazole] | 10%
CCOC(=O)[C@H](C)OP(=O)(NC(C)(C)C(=O)OCC)c1ccc(-c2nc(N)sc2C(=O)C(C)(C)C)o1 (stereo partly drawn) [Compound 5.9] | 10%
